Assay results from article PMC3762611 (International Journal of Tryptophan Research : IJTR, 2013).

Molecular target: indoleamine 2,3-dioxygenase 1 (IDO1) (Homo sapiens, UniProt P14902)
Format: biochemical

Chain of indoleamine 2,3-dioxygenase 1 (IDO1) (P14902 whole entry): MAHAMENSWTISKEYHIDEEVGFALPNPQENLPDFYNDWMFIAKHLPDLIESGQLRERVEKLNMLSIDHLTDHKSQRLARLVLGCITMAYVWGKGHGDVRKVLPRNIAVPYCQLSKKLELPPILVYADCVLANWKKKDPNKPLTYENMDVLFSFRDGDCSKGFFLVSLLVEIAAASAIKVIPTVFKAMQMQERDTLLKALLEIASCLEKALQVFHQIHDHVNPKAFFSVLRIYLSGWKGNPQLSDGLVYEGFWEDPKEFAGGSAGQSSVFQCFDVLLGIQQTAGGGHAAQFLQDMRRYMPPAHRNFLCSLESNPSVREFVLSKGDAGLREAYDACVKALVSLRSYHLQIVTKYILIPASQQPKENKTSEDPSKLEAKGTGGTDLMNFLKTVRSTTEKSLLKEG

CC1(C)CCC2=C(O1)c1ccccc1C(=O)C2=O [β-lapachone, 3,4-dihydro-2,2-dimethyl-2H-naphthol[1,2-b]pyran-5,6-dione] showed a Ki of 450 nM.
